Paper PMC3202625, “Pyruvate Kinase Triggers a Metabolic Feedback Loop that Controls Redox Metabolism in Respiring Cells” (Cell Metabolism, 2011)

How the values were obtained:
[1] = molecular target: T1, human TPI (expressed in yeast) (Homo sapiens, UniProt P60174); assay: TPI activity assay, PEP titration; Ki by Cheng-Prusoff equation; assay type: biochemical
T1 construct: gene TPI1; human TPI expressed in transgenic yeast lacking endogenous TPI1; extract, activity normalized to total cellular protein; homodimer

[2] = molecular target: T2, rabbit TPI (purified from muscle) (Oryctolagus cuniculus, UniProt P00939); assay: TPI activity assay, PEP titration; assay type: biochemical
T2 construct: gene TPI1; native enzyme purified from rabbit muscle; homodimer
From the text: TPI activity assay, PEP titration on rabbit TPI (purified from muscle) | IC50 values and the inhibitory constant Ki are given in μM

yeast TPI (endogenous) [3] = molecular target: T3, yeast TPI (endogenous) (Saccharomyces cerevisiae, UniProt P00942); assay: TPI activity assay, PEP titration; assay type: cell-based; details: substrate gly3p, yeast extract
T3 construct: gene TPI1; endogenous full-length enzyme in yeast extract, activity normalized to total cellular protein; homodimer
T3 sequence (P00942 2-248): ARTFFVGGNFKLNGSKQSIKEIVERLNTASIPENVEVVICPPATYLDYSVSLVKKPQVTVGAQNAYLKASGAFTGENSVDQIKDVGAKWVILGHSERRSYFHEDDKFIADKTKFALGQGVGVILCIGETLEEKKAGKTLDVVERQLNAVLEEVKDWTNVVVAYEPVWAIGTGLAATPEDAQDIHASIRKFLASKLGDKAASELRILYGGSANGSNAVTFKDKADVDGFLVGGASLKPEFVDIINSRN
From the text: TPI activity assay, PEP titration on yeast TPI (endogenous) | IC50 values and the inhibitory constant Ki are given in μM

[4] = molecular target: T1, human TPI (expressed in yeast); assay: TPI activity assay, PEP titration; assay type: cell-based
From the text: TPI activity assay, PEP titration on human TPI (expressed in yeast) | IC50 values and the inhibitory constant Ki are given in μM

yeast TPI (endogenous) [5] = molecular target: T3, yeast TPI (endogenous); assay: TPI activity assay, PEP titration; Ki by Cheng-Prusoff equation; assay type: biochemical; details: substrate gly3p, yeast extract
[6] = molecular target: T2, rabbit TPI (purified from muscle); assay: as above; assay type: biochemical
yeast TPI (endogenous) [7] = molecular target: T3, yeast TPI (endogenous); assay: TPI activity assay, Michaelis-Menten kinetics; assay type: biochemical; details: yeast extract, no PEP

T2 sequence (P00939 2-249): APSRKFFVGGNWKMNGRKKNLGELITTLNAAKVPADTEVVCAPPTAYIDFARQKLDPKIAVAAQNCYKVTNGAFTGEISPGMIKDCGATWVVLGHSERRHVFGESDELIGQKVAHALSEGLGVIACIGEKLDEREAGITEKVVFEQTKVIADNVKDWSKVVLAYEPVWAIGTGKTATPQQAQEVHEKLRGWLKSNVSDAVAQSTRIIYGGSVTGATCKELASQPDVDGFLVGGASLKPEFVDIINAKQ
T1 sequence (P60174 2-249): as the sequence (P00939 2-249) above, with K19Q, N20S, T26G, S118A counted along it

| Ki [1] [µM] | IC50 [2] [µM] | IC50 (yeast TPI (endogenous) [3]) [µM] | IC50 [4] [µM] | Ki (yeast TPI (endogenous) [5]) [µM] | Ki [6] [µM] | SMILES | Km (yeast TPI (endogenous) [7]) [µM] |
| --- | --- | --- | --- | --- | --- | --- | --- |
| 163 | 515 | 1130 | 531 | 392 | 156 | C=C(OP(=O)(O)O)C(=O)O [PEP] | – |
| – | – | – | – | – | – | O=C[C@H](O)COP(=O)(O)O [gly3p] | 854 |
